How the values were obtained:
Assay type in all cases: in vitro ADME
[1] = Stability in human plasma at 37° C.
Protocol: The stability of the acid labile, lipophilic molecular conjugates to hydrolysis in plasma was evaluated to determine their potential to release the active cancer chemotherapeutic agents into systemic circulation and thereby cause general off target toxicity (“side effects”). The conjugates were incubated with plasma of mouse, rat and human origin.
(§1) HPLC grade Methanol from Fisher (Fair lawn, NJ, USA). Part No: A452-4 (074833). HPLC grade Water from Fisher (Fair lawn, NJ, USA). Part No: W5-4 (073352). Drug-free mouse, rat and human plasmas were purchased from Innovative Research Inc. (Southfield, Mich., USA). LIPOSYN® I.V. (30% soybean oil and egg yolk phospholipids, Abbott Laboratories) Fat Emulsion from Hospira, Inc. (Lake Forest, Ill.).
Each drug (ART 198, ART 273, ART 488 and ART 489) was prepared in triplicate in mouse, rat and human plasma individually at […] concentration and vortexed for 1 minute and placed in a water bath at 37° C. at a shake rate of 75 per minute. Samples were drawn at time points of 0, 15, 30, 45, 60, 75, 90, 105, 120, 135, 150, 165, 180, 210, 240, 300, 360 and 480 minutes.
(§2) Chromatographic separation of the compounds was performed on a Waters Acquity UPLC™ using a BEH C18 column (1.7 μm, 2.1×50 mm). The mobile phase consisted of Methanol: 0.1% Formic acid (80:20). The flow rate was 0.3 ml/min; the sample injection volume was 5 μL, resulting in a 3 minute run time.
(§3) The MS instrumentation consisted of a Waters Micromass Quattro Micro™ triple-quadrupole system (Manchester, UK). The MS system was controlled by a 4.0 version of MassLynx software. Ionization was performed in the positive electrospray ionization mode. MS/MS conditions were the following: capillary voltage 3.02 kV; cone voltage 50 v; extractor voltage 5 v; and RF lens voltage 0.5 v. The source and desolvation temperatures were 100° C. and 400° C. respectively, and the desolvation and cone gas flow were 400 and 30 L/hr, respectively.
(§4) The selected mass-to-charge (m/z) ratio transitions of the ART 198 used in the selected ion monitoring (SIM) were: for ART 198, 617 (M+K)^+, for ART 273, 589 (M+K)^+, for ART 488, 913 (M+Na)^+, and for ART 489, 957 (M+Na)^+. The dwell time was set at 200 msec. MS conditions were optimized using direct infusion of standard solutions prepared in methanol and delivered by a syringe pump at a flow rate of 20 μL/min.
(§5) Samples of 100 μL were collected at time points of 0, 15, 30, 45, 60, 75, 90, 105, 120, 135, 150, 165, 180, 210, 240, 300, 360 and 480 minutes respectively and the reaction was terminated with methanol. In a separate set of experiments the acid labile, lipophilic molecular conjugates were dissolved in a small amount of ethanol and diluted into a lipid emulsion (Liposyn®) and added to mouse and human plasma before incubation and the hydrolysis of the conjugates was similarly measured. Collected plasma samples of 100 μL containing drug were placed in separate Eppendorf micro centrifuge tubes for processing. Methanol (200 μL) was added to extract the drug using the protein precipitation technique. The micro tubes were then vortex mixed for 10 minutes and centrifuged for 15 minutes at a speed of 10,000 rpm (Eppendorf 5415C centrifuge). The supernatant was collected and filtered using a 0.45 μm filter (Waters 13 mm GHP 0.45 μm) before analysis.
The weighted linear least-squares (1/x) regression was used as the mathematical model. The coefficient (r) for the compounds ranged from 0.9925 to 0.9999. The calibration range was selected according to the concentrations anticipated in the samples to be determined.
(§6) Samples were collected at various times and the percent remaining of the acid labile, lipophilic molecular conjugate of the cancer chemotherapeutic agent was determined along with the percent of the chemotherapeutic agent released from the hydrolysis of the conjugate.

[2] = Stability in mouse plasma when added in a lipid emulsion (Liposyn); settings: 37° C.
Protocol: as §1, §2, §3, §4, §5, §6

[3] = Stability in human plasma when added in a lipid emulsion (Liposyn); settings: 37° C.
Protocol: as §1, §2, §3, §4, §5, §6

COC(=O)[C@@]12OC[C@]34[C@H]([C@@H](O)[C@@H]1O)[C@@]1(C)CC(=O)C(O)=C(C)[C@@H]1C[C@H]3OC(=O)C(OC(=O)CC1(O)CCCCC1)[C@@H]24 (some centres unmarked) [ART 198]
percent remaining of initial drug ([1]; 0 min): 100% | percent remaining of initial drug ([1]; 15 min): 99.3% | percent remaining of initial drug ([1]; 30 min): 99.1% | percent remaining of initial drug ([1]; 45 min): 94.9% | percent remaining of initial drug ([1]; 60 min): 94.6% | percent remaining of initial drug ([1]; 75 min): 93.1% | percent remaining of initial drug ([1]; 90 min): 89.9% | percent remaining of initial drug ([1]; 105 min): 87.0% | percent remaining of initial drug ([1]; 120 min): 68.5% | percent remaining of initial drug ([1]; 135 min): 66.4% | percent remaining of initial drug ([1]; 150 min): 61.1% | percent remaining of initial drug ([1]; 165 min): 59.6% | percent remaining of initial drug ([1]; 180 min): 48.6% | percent remaining of initial drug ([1]; 210 min): 47.6% | percent remaining of initial drug ([1]; 240 min): 46.0% | percent remaining of initial drug ([1]; 300 min): 44.4% | percent remaining of initial drug ([1]; 360 min): 39.6% | percent remaining of initial drug ([1]; 480 min): 34.2%

CCCCCCCCCCCCCCCC1OCC(COC(=O)OC2=C(C)[C@@H]3C[C@H]4OC(=O)C(OC(=O)CC5(O)CCCCC5)[C@H]5[C@]6(C(=O)OC)OC[C@]45[C@H]([C@@H](O)[C@@H]6O)[C@@]3(C)CC2=O)O1 (some centres unmarked) [ART 489]
percent remaining of initial drug ([1]; 0 min): 100% | percent remaining of initial drug ([1]; 15 min): 99.3% | percent remaining of initial drug ([1]; 30 min): 98.8% | percent remaining of initial drug ([1]; 45 min): 98.4% | percent remaining of initial drug ([1]; 60 min): 97.4% | percent remaining of initial drug ([1]; 75 min): 94.6% | percent remaining of initial drug ([1]; 90 min): 93.7% | percent remaining of initial drug ([1]; 105 min): 93.0% | percent remaining of initial drug ([1]; 120 min): 91.9% | percent remaining of initial drug ([1]; 135 min): 91.7% | percent remaining of initial drug ([1]; 150 min): 90.9% | percent remaining of initial drug ([1]; 165 min): 90.4% | percent remaining of initial drug ([1]; 180 min): 90.1% | percent remaining of initial drug ([1]; 210 min): 89.0% | percent remaining of initial drug ([1]; 240 min): 86.7% | percent remaining of initial drug ([1]; 300 min): 84.1% | percent remaining of initial drug ([1]; 360 min): 78.7% | percent remaining of initial drug ([1]; 480 min): 65.9% | percent remaining of initial drug ([2]; 0 min): 100% | percent remaining of initial drug ([2]; 15 min): 98.0% | percent remaining of initial drug ([2]; 30 min): 97.9% | percent remaining of initial drug ([2]; 45 min): 97.4% | percent remaining of initial drug ([2]; 60 min): 91.4% | percent remaining of initial drug ([2]; 75 min): 90.3% | percent remaining of initial drug ([2]; 90 min): 87.9% | percent remaining of initial drug ([2]; 105 min): 80.7% | percent remaining of initial drug ([2]; 120 min): 80.4% | percent remaining of initial drug ([2]; 135 min): 79.9% | percent remaining of initial drug ([2]; 150 min): 79.2% | percent remaining of initial drug ([2]; 165 min): 78.7% | percent remaining of initial drug ([2]; 180 min): 78.2% | percent remaining of initial drug ([2]; 210 min): 75.6% | percent remaining of initial drug ([2]; 240 min): 74.7% | percent remaining of initial drug ([2]; 300 min): 73.7% | percent remaining of initial drug ([2]; 360 min): 73.0% | percent remaining of initial drug ([3]; 0 min): 100% | percent remaining of initial drug ([3]; 15 min): 98.4% | percent remaining of initial drug ([3]; 30 min): 93.9% | percent remaining of initial drug ([3]; 45 min): 92.7% | percent remaining of initial drug ([3]; 60 min): 88.2% | percent remaining of initial drug ([3]; 75 min): 87.9% | percent remaining of initial drug ([3]; 90 min): 87.5% | percent remaining of initial drug ([3]; 105 min): 86.4% | percent remaining of initial drug ([3]; 120 min): 86.4% | percent remaining of initial drug ([3]; 135 min): 84.7% | percent remaining of initial drug ([3]; 150 min): 84.6% | percent remaining of initial drug ([3]; 165 min): 83.7% | percent remaining of initial drug ([3]; 180 min): 82.9% | percent remaining of initial drug ([3]; 210 min): 82.0% | percent remaining of initial drug ([3]; 240 min): 81.4% | percent remaining of initial drug ([3]; 300 min): 80.2% | percent remaining of initial drug ([3]; 360 min): 78.2% | percent remaining of initial drug ([3]; 480 min): 76.6%
